Here are results for six compounds from patent publication US20140135310A1, “SULPHONAMIDE DERIVATIVES OF ALICYCLIC AMINES FOR THE TREATMENT OF CENTRAL NERVOUS SYSTEM DISEASES” (Adamed Sp. z o.o., priority 2011, published 2014).

pIC50: −log10 of the molar value. Like-named read-outs stand apart in the source and are kept apart here.

Assay [1] deals with T1, 5-HT reuptake (rat brain synaptosomes) (Rattus norvegicus, UniProt P31652).
T1 construct: measuring [^3H]5-HT incorporation into rat brain synaptosomes; from tissue; host or cells: rat brain synaptosomes
Put plainly: 5-HT reuptake, [3H]5-HT incorporation into rat brain synaptosomes. Format: biochemical. Particulars: 15 min/37° C., read-out: SERT IC50. As for the experimental part:
5-HT reuptake was tested according to Perovic, S. and Muller, W.E.G. (1995) Arzneim-Forsch. Drug Res., 45: 1145-1148 by measuring [^3H]5-HT incorporation into rat brain synaptosomes. Assay conditions are as follows:
Tracer: [^3H]5-HT (0.2 μCi/ml)
Incubation: 15 min/37° C.

Assay [2] deals with 5-HT7 serotoninergic receptors (Homo sapiens, UniProt P34969). Put plainly: Cellular functional assay, 5-HT7 serotoninergic receptors. Format: cell-based. Particulars: agonist mode; percent of control specific agonist response. The method, boiled down:
(§1)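 Responses expressed as percent of control specific agonist response; EC50 or IC50 from Hill-equation nonlinear fits of mean replicate concentration-response curves. For antagonists, Kb derived by modified Cheng-Prusoff using reference agonist concentration and its EC50.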

Assay [3] addresses D2 dopaminergic receptors (Homo sapiens, UniProt P14416). Put plainly: Cellular functional assay, D2 dopaminergic receptors. Format: cell-based. Particulars: D2S (h), HEK-293 cells; for D2 ag [%]: agonism, percent of control specific agonist response (3 μM dopamine for control); for D2 antag [%]: antagonism, stimulus dopamine (30 nM). In outline:
as §1

The target of assay [4] is D3 dopaminergic receptors (Homo sapiens, UniProt P35462). Description: Cellular functional assay, D3 dopaminergic receptors. The class given is cell-based. Particulars: D3 (h), CHO cells; for D3 ag [%]: agonism, percent of control specific agonist response (0.3 μM dopamine for control); for D3 antag [%]: antagonism, stimulus dopamine (10 nM). The method, boiled down: as §1

Assay [5] addresses T2, 5-HT2C serotoninergic receptors (Homo sapiens, UniProt P28335).
T2 sequence (P28335 33-458): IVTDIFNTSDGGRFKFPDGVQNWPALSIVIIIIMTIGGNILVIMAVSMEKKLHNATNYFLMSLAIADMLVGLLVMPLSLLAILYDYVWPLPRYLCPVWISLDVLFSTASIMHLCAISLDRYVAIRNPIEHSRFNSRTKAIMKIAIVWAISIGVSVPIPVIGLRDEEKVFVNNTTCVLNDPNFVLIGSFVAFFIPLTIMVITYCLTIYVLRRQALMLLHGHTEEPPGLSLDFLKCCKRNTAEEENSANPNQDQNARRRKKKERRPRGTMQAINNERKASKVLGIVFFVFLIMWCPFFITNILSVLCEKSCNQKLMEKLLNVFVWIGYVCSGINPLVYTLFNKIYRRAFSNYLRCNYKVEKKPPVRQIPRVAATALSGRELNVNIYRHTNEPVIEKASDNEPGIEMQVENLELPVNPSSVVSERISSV
Description: Cellular functional assay, 5-HT2C serotoninergic receptors. The class given is cell-based. As for the experimental part: (§2) The results are expressed as a percent of control specific agonist response ((measured specific response/control specific agonist response)×100) obtained in the presence of the test compounds.
(§3) The EC50 values (concentration producing a half-maximal specific response) and IC50 values (concentration causing a half-maximal inhibition of the control specific agonist response) were determined by non-linear regression analysis of the concentration-response curves generated with mean replicate values using Hill equation curve fitting (Y=D+[(A−D)/(1+(C/C50)nH)], where Y=specific response, D=minimum specific response, A=maximum specific response, C=compound concentration, and C50=EC50 or IC50, and nH=slope factor). This analysis was performed using a software developed at Cerep (Hill software) and validated by comparison with data generated by the commercial software SigmaPlot® 4.0 for Windows® (© 1997 by SPSS Inc.).
(§4) For the antagonists, the apparent dissociation constants (Kb) were calculated using the modified Cheng Prusoff equation (Kb=IC50/(1+(A/EC50A)), where A=concentration of reference agonist in the assay, and EC50A=EC50 value of the reference agonist).

The target in assay [6] is 5-HT6 serotoninergic receptors (Homo sapiens, UniProt P50406). Put plainly: Cellular functional assay, 5-HT6 serotoninergic receptors. Format: cell-based. Particulars: agonist mode; percent of control specific agonist response. In outline:
as §1

Assay [7] deals with T3, 5-HT1A serotoninergic receptors (Homo sapiens, UniProt P08908).
T3 sequence (P08908 1-422): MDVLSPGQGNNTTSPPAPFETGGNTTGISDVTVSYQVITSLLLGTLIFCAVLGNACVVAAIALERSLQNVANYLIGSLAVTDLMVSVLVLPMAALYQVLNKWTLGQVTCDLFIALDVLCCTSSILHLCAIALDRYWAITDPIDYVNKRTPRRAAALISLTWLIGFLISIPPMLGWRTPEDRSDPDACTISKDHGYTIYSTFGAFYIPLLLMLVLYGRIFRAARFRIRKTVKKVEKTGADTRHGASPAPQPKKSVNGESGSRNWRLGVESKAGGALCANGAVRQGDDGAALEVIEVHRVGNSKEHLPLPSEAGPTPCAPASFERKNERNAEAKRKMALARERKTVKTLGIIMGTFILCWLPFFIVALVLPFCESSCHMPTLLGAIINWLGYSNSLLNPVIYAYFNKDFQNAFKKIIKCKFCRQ
Put plainly: Cellular functional assay, 5-HT1A serotoninergic receptors. Format: cell-based. Particulars: agonist mode; percent of control specific agonist response. As for the experimental part: as §2, §3, §4

For assay [8], the target named is 5-HT2A serotoninergic receptors (Homo sapiens, UniProt P28223). Put plainly: Cellular functional assay, 5-HT2A serotoninergic receptors. Format: cell-based. The method, boiled down: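 Response expressed as percent of control specific agonist response; EC50 or IC50 from Hill-equation non-linear regression on mean replicate values. For antagonists, apparent Kb derived by modified Cheng-Prusoff using reference agonist concentration and its EC50.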

Where [9] appears, read: agonist mode, percent of control specific agonist response.

Chain of 5-HT7 serotoninergic receptors (P34969 whole entry): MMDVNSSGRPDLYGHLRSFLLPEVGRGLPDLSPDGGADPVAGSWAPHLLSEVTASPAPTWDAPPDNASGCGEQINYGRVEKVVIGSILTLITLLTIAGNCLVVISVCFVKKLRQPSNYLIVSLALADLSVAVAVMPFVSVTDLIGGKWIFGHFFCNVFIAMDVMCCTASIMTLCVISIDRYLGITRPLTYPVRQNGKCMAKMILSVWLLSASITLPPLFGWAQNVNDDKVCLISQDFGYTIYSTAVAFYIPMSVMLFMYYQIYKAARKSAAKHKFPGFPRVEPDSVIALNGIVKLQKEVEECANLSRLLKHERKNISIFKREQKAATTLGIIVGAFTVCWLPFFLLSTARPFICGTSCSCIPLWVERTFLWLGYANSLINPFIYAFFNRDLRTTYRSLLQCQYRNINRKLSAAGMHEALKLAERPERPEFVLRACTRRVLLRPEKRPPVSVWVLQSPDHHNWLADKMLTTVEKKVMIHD
Chain of 5-HT6 serotoninergic receptors (P50406 whole entry): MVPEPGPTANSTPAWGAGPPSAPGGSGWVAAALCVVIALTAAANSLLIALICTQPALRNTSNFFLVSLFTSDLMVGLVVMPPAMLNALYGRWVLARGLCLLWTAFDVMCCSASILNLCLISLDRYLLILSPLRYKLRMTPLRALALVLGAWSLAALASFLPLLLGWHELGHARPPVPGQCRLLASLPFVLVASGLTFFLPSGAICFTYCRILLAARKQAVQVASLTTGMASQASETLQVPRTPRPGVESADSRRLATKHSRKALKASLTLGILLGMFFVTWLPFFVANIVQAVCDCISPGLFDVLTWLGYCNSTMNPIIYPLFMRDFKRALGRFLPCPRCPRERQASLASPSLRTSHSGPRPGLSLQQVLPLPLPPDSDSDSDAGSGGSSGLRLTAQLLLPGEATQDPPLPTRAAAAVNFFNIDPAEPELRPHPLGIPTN
Chain of 5-HT2A serotoninergic receptors (P28223 whole entry): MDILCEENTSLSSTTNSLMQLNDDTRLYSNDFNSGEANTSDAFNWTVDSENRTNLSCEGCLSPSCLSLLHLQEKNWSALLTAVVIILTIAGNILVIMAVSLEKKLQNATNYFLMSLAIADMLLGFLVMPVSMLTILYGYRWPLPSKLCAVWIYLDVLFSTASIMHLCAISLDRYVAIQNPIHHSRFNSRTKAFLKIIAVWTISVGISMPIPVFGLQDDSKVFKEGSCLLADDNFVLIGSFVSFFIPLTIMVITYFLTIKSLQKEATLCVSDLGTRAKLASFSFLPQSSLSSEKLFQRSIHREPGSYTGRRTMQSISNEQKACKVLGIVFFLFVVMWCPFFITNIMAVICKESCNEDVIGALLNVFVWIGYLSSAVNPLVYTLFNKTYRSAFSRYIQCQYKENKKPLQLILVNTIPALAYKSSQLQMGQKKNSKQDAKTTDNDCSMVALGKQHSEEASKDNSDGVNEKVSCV
Chain of D3 dopaminergic receptors (P35462 whole entry): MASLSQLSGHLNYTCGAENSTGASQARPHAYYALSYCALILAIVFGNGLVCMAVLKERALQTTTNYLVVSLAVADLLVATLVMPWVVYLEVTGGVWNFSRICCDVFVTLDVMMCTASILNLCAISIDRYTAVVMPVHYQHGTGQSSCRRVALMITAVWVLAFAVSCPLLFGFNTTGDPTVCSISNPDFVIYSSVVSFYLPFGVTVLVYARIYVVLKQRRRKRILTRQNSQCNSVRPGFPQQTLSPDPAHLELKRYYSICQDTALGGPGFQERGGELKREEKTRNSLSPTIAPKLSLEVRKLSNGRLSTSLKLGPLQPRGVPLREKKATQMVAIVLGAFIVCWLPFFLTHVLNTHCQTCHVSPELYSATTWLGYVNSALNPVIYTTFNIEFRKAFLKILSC
Chain of D2 dopaminergic receptors (P14416 whole entry): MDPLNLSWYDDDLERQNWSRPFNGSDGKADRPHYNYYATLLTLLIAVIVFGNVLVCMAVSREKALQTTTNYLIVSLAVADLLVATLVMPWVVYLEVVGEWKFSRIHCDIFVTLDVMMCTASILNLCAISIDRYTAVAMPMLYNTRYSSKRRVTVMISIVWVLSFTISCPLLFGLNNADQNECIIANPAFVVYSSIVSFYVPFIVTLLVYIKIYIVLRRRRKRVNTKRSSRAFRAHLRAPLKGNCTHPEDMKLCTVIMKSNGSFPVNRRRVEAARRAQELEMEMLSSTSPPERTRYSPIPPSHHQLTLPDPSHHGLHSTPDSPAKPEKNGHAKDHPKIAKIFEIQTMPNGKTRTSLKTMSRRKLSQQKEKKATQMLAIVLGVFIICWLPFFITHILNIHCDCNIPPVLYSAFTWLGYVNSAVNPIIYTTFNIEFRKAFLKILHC
T1 sequence (P31652 whole entry): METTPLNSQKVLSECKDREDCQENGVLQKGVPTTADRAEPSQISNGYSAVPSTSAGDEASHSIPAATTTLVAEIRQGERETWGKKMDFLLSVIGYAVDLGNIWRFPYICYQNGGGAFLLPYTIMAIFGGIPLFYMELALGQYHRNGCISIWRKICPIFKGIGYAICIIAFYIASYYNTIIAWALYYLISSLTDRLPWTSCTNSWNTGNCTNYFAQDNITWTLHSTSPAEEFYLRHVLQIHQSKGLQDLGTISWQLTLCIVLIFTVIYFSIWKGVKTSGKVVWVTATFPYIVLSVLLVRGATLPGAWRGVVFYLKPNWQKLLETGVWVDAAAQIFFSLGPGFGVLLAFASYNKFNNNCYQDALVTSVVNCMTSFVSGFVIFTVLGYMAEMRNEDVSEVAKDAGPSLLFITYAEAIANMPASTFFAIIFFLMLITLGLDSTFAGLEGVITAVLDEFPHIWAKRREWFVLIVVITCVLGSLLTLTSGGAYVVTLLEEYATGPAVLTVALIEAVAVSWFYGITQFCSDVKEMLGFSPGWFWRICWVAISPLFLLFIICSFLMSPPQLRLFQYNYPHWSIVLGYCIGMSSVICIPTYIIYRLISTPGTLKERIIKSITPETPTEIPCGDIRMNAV

For orientation: pIC50 means the IC50 on a negative log10 scale, so that one unit is a factor of ten. Take `Cc1cccc(S(=O)(=O)NC2CCN(CCCc3c[nH]c4ccc(Cl)cc34)C2)c1` (stereo not drawn) [Compound 86, N-[1-[3-(5-chloro-1H-indol-3-yl)propyl]pyrrolidin-3-yl]-3-methyl-benzenesulphonamide]: the pIC50 in assay [1] was 7.77.
For `O=S(=O)(NCC1CN(CCOc2cccc3ccccc23)C1)c1ccc2ccccc2c1` [Compound 122, N-[[1-[2-(1-Naphthyloxy)ethyl]azetidin-3-yl]methyl]naphthalene-2-sulphonamide], the “5-HT7 ag [%]” value in assay [2] came out at 21%. Besides, in assay [3], the “D2 ag [%]” value was 33% and the “D2 antag [%]” value came to 62%. In addition, in assay [4], the “D3 ag [%]” value amounted to 38% and the “D3 antag [%]” value worked out at 56%. Moreover, in assay [5] (setting [9]), the “5-HT2C ag [%]” value was 78%. In addition, the “5-HT2C antag [%]” value in assay [5] (antagonist mode) is given as −10%. Further, the “5-HT6 ag [%]” value in assay [6] turned out to be 0%. The “5-HT1A ag [%]” value in assay [7] is on record as 35%.
On to `O=S(=O)(NCC1CCN(CCOc2cccc3ccccc23)C1)c1ccc2ccccc2c1` (stereo not drawn) [Compound 124, N-[[1-[2-(1-Naphthyloxy)ethyl]pyrrolidin-3-yl]methyl]naphthalene-2-sulphonamide], for which the “5-HT7 ag [%]” value in assay [2] worked out at 10%. In assay [3], the “D2 ag [%]” value worked out at 33% and the “D2 antag [%]” value was determined as 44%. Besides, in assay [4], the “D3 ag [%]” value was determined as 11% and the “D3 antag [%]” value is 43%. Further, the “5-HT6 ag [%]” value in assay [6] was 7%. Besides, the “5-HT1A ag [%]” value in assay [7] is reported as 16%.
With `Cc1c(S(=O)(=O)NCC2CN(CCCc3noc4cc(F)ccc34)C2)sc2ccc(F)cc12` [Compound 130, 5-Fluoro-N-[[1-[3-(6-fluoro-1,2-benzoxazol-3-yl)propyl]azetidin-3-yl]methyl]-3-methyl-benzothiophene-2-sulphonamide], in assay [2], the “5-HT7 ag [%]” value came to 0%. Moreover, in assay [3], the “D2 ag [%]” value is 6% and the “D2 antag [%]” value came out at 34%. In assay [4], the “D3 ag [%]” value stood at 5% and the “D3 antag [%]” value is recorded as 61%. Moreover, the “5-HT6 ag [%]” value in assay [6] is reported as 4%. Besides, the “5-HT2A ag [%]” value in assay [8] (setting [9]) was 0%.
Consider `Cc1c(S(=O)(=O)NCC2CN(CCCc3noc4cc(F)ccc34)C2)sc2ccc(Cl)cc12` [Compound 131, 5-Chloro-N-[[1-[3-(6-fluoro-1,2-benzoxazol-3-yl)propyl]azetidin-3-yl]-methyl]-3-methyl-benzothiophene-2-sulphonamide], for which the “5-HT7 ag [%]” value in assay [2] is on record as 1%. Further, in assay [3], the “D2 ag [%]” value is given as 5% and the “D2 antag [%]” value was 20%. In assay [4], the “D3 ag [%]” value is −13% and the “D3 antag [%]” value is listed as 55%. In assay [6], the “5-HT6 ag [%]” value came out at 3%. Also, the “5-HT2A ag [%]” value in assay [8] (setting [9]) is on record as −2%.
For `O=S(=O)(NCC1CN(CCCc2noc3cc(F)ccc23)C1)c1ccc2ccccc2c1` [Compound 134, N-[[1-[3-(6-Fluoro-1,2-benzoxazol-3-yl)propyl]azetidin-3-yl]methyl]-naphthalene-2-sulphonamide], the “5-HT7 ag [%]” value in assay [2] amounted to 1%. In assay [3], the “D2 ag [%]” value was 6% and the “D2 antag [%]” value is given as 47%. Moreover, the “5-HT6 ag [%]” value in assay [6] worked out at 4%. Moreover, in assay [8], the “5-HT2A ag [%]” value is −3%.
